Data published in patent publication US7855076B2, “Use of discoidin domain receptor 1 (DDR1) and agents that affect the DDR1/collagen pathway” (The United States of America as represented by the …, priority 2002, dated 2010).

Columns and labels:
GM-macrophages = assay: HLA-DR expression on GM-macrophages; format: cell-based, human; conditions: pretreatment of 5-day GM-macrophages, 30 minutes
Method: The leukocyte-rich preparation was overlaid on Accu-prep in 50 ml tubes and the tubes were centrifuged at 800×g for 20 minutes at room temperature. PBMC fractions were collected, washed once with PBS at room temperature and twice with complete medium at 4° C. and resuspended in the same medium. Monocytes were further purified by using iso-osmotic Percoll gradient. At this stage, the purity of monocytes was higher than 90%. The cells (5×10^5/ml) were allowed to adhere to the surface of 6-well plates. After a 5-hour incubation at 37° C., nonadherent cells were removed and adherent cells were induced to differentiate into macrophages by incubation in the presence of GM-CSF (50 ng/ml) for 5 to 7 days to produce GM-CSF-induced macrophages (GM-macrophages). Five-day GM-macrophages were incubated for additional 2 days with GM-CSF in the presence of an agonistic anti-human DDR1 monoclonal mouse against the extracellular domain of DDR1 (IgM 513). To measure the effect of SB203580, 5-day GM-macrophages were pretreated with SB203580, for 30 minutes.

THP-1 cells = assay: Adherence of THP-1 cells to coated plates; format: cell-based, human; conditions: DDR1a- or DDR1b-overexpressing THP-1 cells, 30 minutes
Method: 5×10^5 cells/ml were cultured on either BSA (10 mg/ml)- or collagen (20 μg/ml) and BSA-coated plates for 30 (FIG. 2A) or 120 minutes (FIG. 2B) at 37° C. in a 5% CO2 humidified incubator. Normal mouse IgG or anti-β1 integrin blocking IgG was added to measure the effect of β1 integrin in the assay. The number of adherent cells in each 400× visual field was counted. The results are presented as means ±SE of four individual fields. Data are representative of three experiments with two independent clones overexpressing either DDR1a or DDR1b.
To determine the effects of collagen on the functions of DDR1a- and DDR1b-overexpressing THP-1 cells, the cells were incubated on collagen-coated plastic plates. Twenty-four-well plates were coated with 100 μl/well human collagen type I (20 μg/ml) overnight at 4° C., and then with 200 μl/well 10 mg/ml bovine serum albumin (BSA) for 1 hour at 37° C. Cells were plated at the cell density of 1×10^5 cells/ml to the coated wells and were incubated for 30 minutes at 37° C. in 5% CO2 humidified atmosphere. Nonadherent cells were removed by washing three times with PBS. Cells that remained on the coated surface were considered to be adherent, and the number of cells in each 400 field was counted. Results were presented as mean ±SE per 400 field.

DDR1a = biological target: T1, DDR1a (Homo sapiens, UniProt Q08345); assay: Autophosphorylation of DDR1a overexpressed in THP-1 cells; format: cell-based
T1 construct: The full-length human DDR1a or DDR1b cDNA was ligated into the EcoRI/BamHI site of the retroviral vector pLXSN; expressed in transfected cells; host or cells: THP-1 human monocytic leukemia cells, retroviral vector pLXSN, G418-selected clones
T1 sequence (Q08345 19-876 isoform Q08345-2 limits assumed): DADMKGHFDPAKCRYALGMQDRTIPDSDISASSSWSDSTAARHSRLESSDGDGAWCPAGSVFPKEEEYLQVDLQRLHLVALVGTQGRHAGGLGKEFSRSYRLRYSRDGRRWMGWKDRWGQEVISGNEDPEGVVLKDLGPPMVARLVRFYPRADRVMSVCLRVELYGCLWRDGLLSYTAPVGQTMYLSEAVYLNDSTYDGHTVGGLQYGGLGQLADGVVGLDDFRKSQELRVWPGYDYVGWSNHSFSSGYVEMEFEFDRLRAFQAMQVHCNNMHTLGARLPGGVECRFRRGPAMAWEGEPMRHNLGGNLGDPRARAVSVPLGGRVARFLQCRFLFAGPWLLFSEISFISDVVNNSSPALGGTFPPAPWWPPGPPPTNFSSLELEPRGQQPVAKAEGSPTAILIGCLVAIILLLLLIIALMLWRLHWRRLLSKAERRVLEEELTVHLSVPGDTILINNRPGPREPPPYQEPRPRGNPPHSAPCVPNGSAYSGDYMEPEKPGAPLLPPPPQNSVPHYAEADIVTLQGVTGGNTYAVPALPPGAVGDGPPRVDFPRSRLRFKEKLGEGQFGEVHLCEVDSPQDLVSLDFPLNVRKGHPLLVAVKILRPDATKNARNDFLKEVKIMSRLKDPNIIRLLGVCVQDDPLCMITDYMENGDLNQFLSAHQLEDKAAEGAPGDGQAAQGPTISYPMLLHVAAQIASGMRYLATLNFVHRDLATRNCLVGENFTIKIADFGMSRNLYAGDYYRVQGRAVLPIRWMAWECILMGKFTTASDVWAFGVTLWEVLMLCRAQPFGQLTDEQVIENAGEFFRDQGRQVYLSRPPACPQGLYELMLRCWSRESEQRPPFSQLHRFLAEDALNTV
Method: Using the retrovirus-infected cell lines, the effect of collagen type I on the phosphorylation of DDR1 proteins was tested. Two million cells in 3 ml complete medium were added onto collagen type I-coated plastic plates and incubated at 37° C. for various times. Cell lysates were prepared and immunoprecipitation was performed with the anti-DDR1 antibody. One-fourth of the immunoprecipitated samples was subjected to SDS-PAGE and Western blotting. The membranes were blotted with anti-pTyr and anti-DDR1 antibody. Low levels of constitutive autophosphorylation of both receptors were detected. The levels of autophosphorylation increased slightly at 15 minutes and peaked at 90 minutes after activation of the cells on collagen type I-coated plastic plates. The peak level was maintained for up to 240 minutes for DDR1a, which is consistent with the previously reported delayed kinetics of […] autophosphorylation in other cell types (Vogel FASEB J, (Suppl.), S77-S82, 1999). In contrast, autophosphorylation of DDR1b decreased after 90 minutes of collagen-activation.
Parental, mock, DDR1a- or DDR1b-overexpressing THP-1 cells were plated at 5×10^6/ml on uncoated tissue culture plates and stimulated with PMA (10 nM) for 24 hours, and then starved in RMPI 1640 without FCS for 10 hours. Subsequently cells were washed three times with PBS, and then incubated in the presence of 50 μg/ml collagen type I for various times.
Ten million cells were lysed on ice for 20 minutes in a buffer containing 50 mM NaCl, 20 mM Tris-HCl, 50 mM sodium fluoride, 30 mM Na4P2O7, 5 mM EGTA, 3 mM sodium orthovanadate, 1% Triton X-100, 1 mg/ml leupeptin, 1 mM PMSF, 1 mg/ml aprotinin, 1 mg/ml pepstatinA and 100 μM sodium orthovanadate treated with H2O2. […]
Eluted proteins were analyzed on 8% polyacrylamide gels by SDS-PAGE and transferred electrophoretically to nitrocellulose membranes at 150 mA for 1 hour by a semi-dry system. […] To detect phosphorylated or nonphosphorylated p38 MAP kinase or ATF-2, 20 μl of cell lysates were directly mixed with 20 μl of sample buffer and then analyzed.

[1] = PMA-treated cells, 50 μg/ml collagen type I

time autophosphorylation first detected (DDR1a; [1]) | time of peak autophosphorylation (DDR1a; [1]) | time of peak autophosphorylation (DDR1a; collagen type I-coated plates, cells not PMA-treated) | Compound | agonistic antibody-induced increase of HLA-DR-positive cells (GM-macrophages) | cells adhered to collagen-coated plates (THP-1 cells)
– | – | – | C[S+]([O-])c1ccc(-c2nc(-c3ccncc3)c(-c3ccc(F)cc3)[nH]2)cc1 (centres unmarked) [SB203580] | completely inhibited | –
90 min | 4 h | 1.5 h | collagen | – | ~62 % of total cells
